Literature values in patent publication US20030180823A1, “Individualization of therapy with antihistamines” (Xanthus Life Sciences, Inc., priority 2001, published 2003).

Test system: skin tests
Settings: very long half-life

COc1ccc(CCN2CCC(Nc3nc4ccccc4n3Cc3ccc(F)cc3)CC2)cc1 [Astemizole]
duration of inhibiting skin tests: up to 6 weeks
